Assay results: BindingDB's records for PubMed 34214508 (Roche Innovation Center Shanghai, 2021)

Test: Inhibition of mouse TNF-alpha in mouse L929 cells incubated for 18 hrs by CellTitreGlo assay

`Cc1ccc(C)c(Cn2c(C(O)c3ccncc3)nc3ccc(-c4cnn(C)c4)cc32)c1` (stereo unspecified) gave an IC50 of 125 nM.
